± gives the standard deviation of the averaged measurements.
How the values were obtained:
Assay in all cases: normalised growth rate inhibition (GR value) relative to DMSO control (GR (1 = untreated growth, 0 = cytostasis, <0 = cytotoxic)); higher = less growth inhibition
Conditions in all cases: 72 h
[1] = tested on: MCF10A
Experimental: (§1)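 Breast cancer cell lines (BT-20, Hs 578T, MCF 10A, MCF7, MDA-MB-231, SK-BR-3) were plated in 384-well plates and treated 24 h later with drugs at six concentrations (0.04-10 µM). Viable cells were counted by Hoechst/dead-cell-stain imaging at 0 and 72 h. Counts were normalised to DMSO controls on the same plate to give the relative cell count and the growth-rate inhibition (GR) value; technical plate triplicates were averaged for each biological replicate.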

[2] = tested on: BT20
Experimental: as §1

[3] = tested on: SKBR3
Experimental: as §1

[4] = tested on: HS578T
Experimental: as §1

[5] = tested on: MCF7
Experimental: as §1

[6] = tested on: MDAMB231
Experimental: as §1

Row | SMILES | normalised growth rate inhibition ([1]; 0.04 µM) | normalised growth rate inhibition ([1]; 0.12 µM) | normalised growth rate inhibition ([1]; 0.37 µM) | normalised growth rate inhibition ([1]; 1.11 µM) | normalised growth rate inhibition ([1]; 3.33 µM) | normalised growth rate inhibition ([1]; 10 µM) | normalised growth rate inhibition ([2]; 0.04 µM) | normalised growth rate inhibition ([2]; 0.12 µM) | normalised growth rate inhibition ([2]; 0.37 µM) | normalised growth rate inhibition ([2]; 1.11 µM) | normalised growth rate inhibition ([2]; 3.33 µM) | normalised growth rate inhibition ([2]; 10 µM) | normalised growth rate inhibition ([3]; 0.04 µM) | normalised growth rate inhibition ([3]; 0.12 µM) | normalised growth rate inhibition ([3]; 0.37 µM) | normalised growth rate inhibition ([3]; 1.11 µM) | normalised growth rate inhibition ([3]; 3.33 µM) | normalised growth rate inhibition ([3]; 10 µM) | normalised growth rate inhibition ([4]; 0.04 µM) | normalised growth rate inhibition ([4]; 0.12 µM) | normalised growth rate inhibition ([4]; 0.37 µM) | normalised growth rate inhibition ([4]; 1.11 µM) | normalised growth rate inhibition ([4]; 3.33 µM) | normalised growth rate inhibition ([4]; 10 µM) | normalised growth rate inhibition ([5]; 0.04 µM) | normalised growth rate inhibition ([5]; 0.12 µM) | normalised growth rate inhibition ([5]; 0.37 µM) | normalised growth rate inhibition ([5]; 1.11 µM) | normalised growth rate inhibition ([5]; 3.33 µM) | normalised growth rate inhibition ([5]; 10 µM) | normalised growth rate inhibition ([6]; 0.04 µM) | normalised growth rate inhibition ([6]; 0.12 µM) | normalised growth rate inhibition ([6]; 0.37 µM) | normalised growth rate inhibition ([6]; 1.11 µM) | normalised growth rate inhibition ([6]; 3.33 µM) | normalised growth rate inhibition ([6]; 10 µM)
1 | COC(=O)c1ccc2c(C(=Nc3ccc(N(C)C(=O)CN4CCN(C)CC4)cc3)c3ccccc3)c(O)[nH]c2c1 [nintedanib] | 1.012 ± 0.0058 | 0.9933 ± 0.0087 | 0.9918 ± 0.0074 | 0.99 ± 0.014 | 0.918 ± 0.069 | 0.967 ± 0.029 | 1.03 ± 0.056 | 1.01 ± 0.088 | 0.857 ± 0.14 | 0.843 ± 0.089 | 0.692 ± 0.079 | 0.508 ± 0.12 | 1.09 ± 0.024 | 1.02 ± 0.051 | 0.947 ± 0.028 | 0.835 ± 0.022 | 0.645 ± 0.095 | 0.0487 ± 0.37 | 0.922 ± 0.029 | 0.872 ± 0.043 | 0.727 ± 0.053 | 0.585 ± 0.14 | 0.386 ± 0.12 | 0.0955 ± 0.12 | 0.999 ± 0.043 | 0.892 ± 0.073 | 0.748 ± 0.12 | 0.545 ± 0.15 | 0.326 ± 0.2 | 0.038 ± 0.22 | 1.08 ± 0.029 | 1.04 ± 0.022 | 0.9908 ± 0.0092 | 0.929 ± 0.067 | 0.842 ± 0.14 | 0.214 ± 0.56
2 | CC(=O)c1c(C)c2cnc(Nc3ccc(N4CCNCC4)cn3)nc2n(C2CCCC2)c1=O [palbociclib] | 0.839 ± 0.037 | 0.743 ± 0.052 | 0.666 ± 0.048 | 0.581 ± 0.038 | 0.534 ± 0.019 | 0.408 ± 0.051 | 0.654 ± 0.069 | 0.53 ± 0.14 | 0.412 ± 0.13 | 0.295 ± 0.082 | 0.273 ± 0.066 | 0.196 ± 0.033 | 0.819 ± 0.12 | 0.683 ± 0.037 | 0.612 ± 0.05 | 0.595 ± 0.038 | 0.568 ± 0.049 | 0.517 ± 0.046 | 0.68 ± 0.03 | 0.569 ± 0.024 | 0.485 ± 0.044 | 0.411 ± 0.032 | 0.397 ± 0.019 | 0.327 ± 0.018 | 0.696 ± 0.09 | 0.552 ± 0.13 | 0.447 ± 0.15 | 0.356 ± 0.13 | 0.32 ± 0.055 | 0.294 ± 0.024 | 0.675 ± 0.092 | 0.579 ± 0.077 | 0.477 ± 0.075 | 0.407 ± 0.043 | 0.35 ± 0.027 | 0.278 ± 0.039
3 | CCOc1cc2ncc(C#N)c(Nc3ccc(F)c(Cl)c3)c2cc1NC(=O)/C=C/CN(C)C [pelitinib] | 0.542 ± 0.25 | 0.267 ± 0.27 | 0.115 ± 0.042 | 0.129 ± 0.04 | 0.111 ± 0.042 | -0.017 ± 0.046 | 0.966 ± 0.066 | 0.877 ± 0.099 | 0.7676 ± 0.006 | 0.697 ± 0.037 | 0.594 ± 0.13 | -0.241 ± 0.14 | 0.618 ± 0.21 | 0.332 ± 0.21 | -0.0906 ± 0.18 | -0.0946 ± 0.17 | -0.052 ± 0.16 | -0.227 ± 0.096 | 0.9931 ± 0.0014 | 0.956 ± 0.052 | 0.841 ± 0.042 | 0.79 ± 0.035 | 0.569 ± 0.33 | -0.122 ± 0.026 | 1.06 ± 0.061 | 1.03 ± 0.12 | 0.935 ± 0.068 | 0.763 ± 0.14 | 0.33 ± 0.14 | -0.164 ± 0.085 | 1.05 ± 0.042 | 1.03 ± 0.051 | 0.88 ± 0.043 | 0.75 ± 0.11 | 0.318 ± 0.18 | -0.143 ± 0.073
4 | C[C@@H]1C[C@H]2O[C@@H]2/C=C\C=C\C(=O)Cc2c(Cl)c(O)cc(O)c2C(=O)O1 [radicicol] | 0.886 ± 0.075 | 0.598 ± 0.21 | 0.299 ± 0.15 | 0.104 ± 0.021 | -0.0227 ± 0.054 | -0.182 ± 0.1 | 0.839 ± 0.08 | 0.395 ± 0.11 | 0.115 ± 0.088 | -0.0176 ± 0.13 | -0.0598 ± 0.11 | -0.163 ± 0.097 | 0.329 ± 0.053 | 0.0873 ± 0.083 | 0.0279 ± 0.1 | -0.0112 ± 0.14 | -0.0134 ± 0.1 | -0.166 ± 0.053 | 1.029 ± 0.01 | 0.95 ± 0.091 | 0.704 ± 0.27 | 0.321 ± 0.19 | 0.0951 ± 0.08 | 0.049 ± 0.12 | 0.574 ± 0.059 | 0.262 ± 0.033 | 0.124 ± 0.04 | 0.123 ± 0.036 | 0.115 ± 0.035 | -0.0962 ± 0.041 | 1.06 ± 0.035 | 0.744 ± 0.084 | 0.298 ± 0.12 | 0.0741 ± 0.12 | 0.0054 ± 0.14 | -0.0299 ± 0.12
